ChEMBL document CHEMBL3751695, “Cationic lipid-conjugated hydrocortisone as selective antitumor agent” (Eur J Med Chem, 2016)
Active and inactive are the calls of the source. The rule behind the calls is not given here.

Experiments:
B16-F10 [1] = test: Effect on Bcl-2 expression in mouse B16F10 cells at 10 and 20 uM after 36 hrs by western blot analysis; type: functional, cell-based
B16-F10 [2] = test: Induction of apoptosis in mouse B16F10 cells assessed as increase in ratio of Bax/Bcl2 level at 10 uM after 36 hrs by western blot analysis (reference value: 0.2); type: functional
B16-F10 [3] = test: Induction of apoptosis in mouse B16F10 cells assessed as late apoptotic cells at 20 uM after 24 hrs by annexin-V-FITC/propidium iodide staining based flow cytometry (reference value: 4.47 %); type: functional
Gallus gallus = species on record: Gallus gallus; test: Antiangiogenic activity in chicken embryo assessed as complete degradation of existing blood vessels at 80 uM after 4 hrs by microscopic analysis; type: functional, tissue-based; details: Blood vessel
MDA-MB-231 [4] = test: Induction of apoptosis in human MDA-MB-231 cells assessed as late apoptotic cells at 20 uM after 24 hrs by annexin-V-FITC/propidium iodide staining based flow cytometry (reference value: 3.25 %); type: functional
[5] = Cell cycle arrest in mouse B16F10 cells assessed as accumulation at subG0/G1 phase at 20 uM after 24 hrs by propidium iodide staining based flow cytometry (reference value: 40.7 %); type: functional; details: B16-F10
RAW264.7 [6] = test: Cytotoxicity against mouse RAW264.7 cells after 72 hrs by MTT assay; type: cell-based; details: RAW264.7, 72 h
B16-F10 [7] = test: Induction of apoptosis in mouse B16F10 cells assessed as viable cells at 20 uM after 24 hrs by annexin-V-FITC/propidium iodide staining based flow cytometry (reference value: 93.66 %); type: functional; details: B16-F10, 24 h, read-out: Activity
MDA-MB-231 [8] = test: Induction of apoptosis in human MDA-MB-231 cells assessed as early apoptotic cells at 20 uM after 24 hrs by annexin-V-FITC/propidium iodide staining based flow cytometry (reference value: 0.58 %); type: functional
A549 [9] = test: Induction of apoptosis in human A549 cells assessed as necrotic cells at 20 uM after 24 hrs by annexin-V-FITC/propidium iodide staining based flow cytometry (reference value: 3.23 %); type: functional
B16-F10 [10] = test: Inhibition of cell migration in mouse B16F10 cells at 20 uM after 36 hrs by wound healing assay; type: functional, cell-based
[11] = Cytotoxicity against human SKOV3 cells after 72 hrs by MTT assay; type: functional, cell-based; details: SK-OV-3, 72 h
MDA-MB-231 [12] = test: Induction of apoptosis in human MDA-MB-231 cells assessed as necrotic cells at 20 uM after 24 hrs by annexin-V-FITC/propidium iodide staining based flow cytometry (reference value: 5.40 %); type: functional
MCF7 = test: Cytotoxicity against human MCF7 cells after 72 hrs by MTT assay; type: functional, cell-based; details: MCF7, 72 h
[13] = Antitumor activity in mouse B16F10 cells xenografted in C57BL/J mouse assessed as increase in ratio of Bax/Bcl2 in tumor lysates at 10 mg/kg, ip by western blot analysis (reference value: 0.4); type: functional, Neoplasm, B16-F10
B16-F10 [14] = test: Induction of apoptosis in mouse B16F10 cells assessed as increase in ratio of Bax/Bcl2 level at 20 uM after 36 hrs by western blot analysis (reference value: 0.2); type: functional
B16-F10 [15] = test: Antitumor activity against mouse B16F10 cells xenografted in C57BL/J mouse assessed as inhibition of tumor growth at 10 mg/kg, ip; type: functional, organism-based
B16-F10 [16] = test: Induction of apoptosis in mouse B16F10 cells assessed as increase in p53 expression at 20 uM after 36 hrs by […]; type: functional, cell-based
B16-F10 [17] = test: Antitumor activity in mouse B16F10 cells xenografted in C57BL/J mouse assessed as increase of apoptotic protein p53 level in tumor lysates at 10 mg/kg, ip by western blot analysis; type: functional, organism-based; details: Neoplasm, Lysate
B16-F10 [18] = test: Antitumor activity in mouse B16F10 cells xenografted in C57BL/J mouse assessed as increase of apoptotic protein cleaved caspase 7 level in tumor lysates at 10 mg/kg, ip by western blot analysis; type: functional, organism-based; details: Neoplasm, Lysate
A549 [19] = test: Cytotoxicity against human A549 cells at 5 and 10 uM after 72 hrs cells pretreated with 50 uM of RU486 for 4 hrs by MTT assay; type: functional, cell-based
A549 [20] = test: Induction of apoptosis in human A549 cells assessed as early apoptotic cells at 20 uM after 24 hrs by annexin-V-FITC/propidium iodide staining based flow cytometry (reference value: 1.41 %); type: functional
B16-F10 [21] = test: Induction of apoptosis in mouse B16F10 cells assessed as increased Bax expression at 10 uM after 36 hrs by western blot analysis; type: functional, cell-based
B16-F10 [22] = test: Induction of apoptosis in mouse B16F10 cells assessed as necrotic cells at 20 uM after 24 hrs by annexin-V-FITC/propidium iodide staining based flow cytometry (reference value: 1.41 %); type: functional
RAW264.7 [23] = test: Induction of apoptosis in mouse RAW264.7 cells assessed as early apoptotic cells at 20 uM after 24 hrs by annexin-V-FITC/propidium iodide staining based flow cytometry (reference value: 3.44 %); type: cell-based; details: raw264.7, 24 h
[24] = Induction of apoptosis in mouse RAW264.7 cells assessed as viable cells at 20 uM after 24 hrs by annexin-V-FITC/propidium iodide staining based flow cytometry (reference value: 89.11 %); type: cell-based; details: read-out: Activity
[25] = Cell cycle arrest in mouse B16F10 cells assessed as accumulation at G1 phase at 20 uM after 24 hrs by propidium iodide staining based flow cytometry (reference value: 38.8 %); type: functional; details: B16-F10
[26] = Cell cycle arrest in mouse B16F10 cells assessed as increase in cyclin B1 level at 20 uM by flow cytometric analysis; type: functional, cell-based; details: B16-F10
A549 [27] = test: Cytotoxicity against human A549 cells after 72 hrs by MTT assay; type: functional, cell-based; details: A549, 72 h
RAW264.7 [28] = test: Induction of apoptosis in mouse RAW264.7 cells assessed as necrotic cells at 20 uM after 24 hrs by annexin-V-FITC/propidium iodide staining based flow cytometry (reference value: 1.81%); type: cell-based; details: raw264.7, 24 h
B16-F10 [29] = test: Antitumor activity in mouse B16F10 cells xenografted in C57BL/J mouse assessed as increase of apoptotic protein cytochrome C level in tumor lysates at 10 mg/kg, ip by western blot analysis; type: functional, organism-based; details: Neoplasm, Lysate
B16-F10 [30] = test: Antitumor activity in mouse B16F10 cells xenografted in C57BL/J mouse assessed as induction of apoptosis in tumor vasculature at 10 mg/kg, ip by TUNEL assay; type: functional, organism-based
B16-F10 [31] = test: Induction of apoptosis in mouse B16F10 cells assessed as increased Bax expression at 20 uM after 36 hrs by western blot analysis; type: functional, cell-based
[32] = Induction of apoptosis in mouse NIH/3T3 cells assessed as early apoptotic cells at 20 uM after 24 hrs by annexin-V-FITC/propidium iodide staining based flow cytometry (reference value: 0.43 %); type: cell-based; details: nih3t3, 24 h
[33] = Cytotoxicity against mouse NIH/3T3 cells after 72 hrs by MTT assay; type: cell-based; details: NIH3T3, 72 h
A549 [34] = test: Induction of apoptosis in human A549 cells assessed as late apoptotic cells at 20 uM after 24 hrs by annexin-V-FITC/propidium iodide staining based flow cytometry (reference value: 7.40 %); type: functional
[35] = Cytotoxicity against mouse B16F10 cells after 72 hrs by MTT assay; type: functional, cell-based; details: B16-F10, 72 h

SMILES: CCCCCCCCCCCCCCCC[N+](C)(CCCCCCCCCCCCCCCC)CCNC(=O)[C@@]1(O)CC[C@H]2[C@@H]3CCC4=CC(=O)CC[C@]4(C)[C@H]3[C@@H](O)C[C@@]21C.[Cl-]
- Activity (B16-F10 [1]): inactive
- Ratio (B16-F10 [2]): 0.4
- Activity (B16-F10 [3]): 32.41%
- Activity (Gallus gallus): Active
- Activity (MDA-MB-231 [4]): 40.23%
- Activity [5]: 15.1%
- IC50 (RAW264.7 [6]): 18.4 µM
- viability at 20 µM (B16-F10 [7]): 57.4%
- Activity (MDA-MB-231 [8]): 4.62%
- Activity (A549 [9]): 1.36%
- inhibition (B16-F10 [10]): Active
- IC50 [11]: 3.5 µM
- Activity (MDA-MB-231 [12]): 4.45%
- IC50 (MCF7): 3.7 µM
- Ratio [13]: 2.1
- Ratio (B16-F10 [14]): 0.6
- inhibition (B16-F10 [15]): Active
- Activity (B16-F10 [16]): Active
- Activity (B16-F10 [17]): Active
- Activity (B16-F10 [18]): Active
- Activity (A549 [19]): Active
- Activity (A549 [20]): 7.53%
- Activity (B16-F10 [21]): Active
- Activity (B16-F10 [22]): 8.52%
- Activity (RAW264.7 [23]): 1.63%
- viability at 24 h, 20 µM [24]: 94.2%
- Activity [25]: 33.8%
- Activity [26]: Active
- IC50 (A549 [27]): 2500 nM
- Activity (RAW264.7 [28]): 1.36%
- Activity (B16-F10 [29]): Active
- Activity (B16-F10 [30]): Active
- Activity (B16-F10 [31]): Active
- Activity [32]: 2.08%
- IC50 [33]: 20 µM
- Activity (A549 [34]): 66.05%
- IC50 [35]: 6.2 µM
